Values of other authors, collected in patent US7666392B2, “Click chemistry-derived cyclopeptide derivatives as imaging agents for integrins” (Siemens Medical Solutions USA, Inc., priority 2006, dated 2010).

In the case of c(RGDyV), the “tumor uptake in vivo” value (125I-labeled) is given as “receptor-specific tumor uptake in vivo” and the “tumor washout and excretion” value (in vivo) is given as “rapid tumor washout and unfavorable hepatobiliary excretion”.
